Like-named read-outs stand apart in the source and are kept apart here.
Columns and labels:
[1] = biological target: orexin-1 (Homo sapiens (Human), UniProt O43613); test: Intracellular calcium measurement (FLIPR), CHO cells expressing human orexin-1 receptor, 3 nM orexin-A; format: cell-based; conditions: read-out: IC50 OX1
How it was run: (§1)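 CHO cells stably expressing each receptor were loaded with 3 μM fluo-4 AM plus 5 mM probenecid for 50 min at 37 °C, then equilibrated 30 min at rt.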

[2] = biological target: human orexin-2 receptor (Homo sapiens (Human), UniProt O43614); test: Intracellular calcium measurement (FLIPR), CHO cells expressing human orexin-2 receptor, 3 nM orexin-A; format: cell-based; conditions: read-out: IC50 OX2
How it was run: as §1

[3] = CHO cells expressing human orexin-1 receptor, FLIPR, 3 nM orexin-A, geometric mean if determined several times
[4] = CHO cells expressing human orexin-2 receptor, FLIPR, 3 nM orexin-A, geometric mean if determined several times

Chain of orexin-1 (O43613 whole entry): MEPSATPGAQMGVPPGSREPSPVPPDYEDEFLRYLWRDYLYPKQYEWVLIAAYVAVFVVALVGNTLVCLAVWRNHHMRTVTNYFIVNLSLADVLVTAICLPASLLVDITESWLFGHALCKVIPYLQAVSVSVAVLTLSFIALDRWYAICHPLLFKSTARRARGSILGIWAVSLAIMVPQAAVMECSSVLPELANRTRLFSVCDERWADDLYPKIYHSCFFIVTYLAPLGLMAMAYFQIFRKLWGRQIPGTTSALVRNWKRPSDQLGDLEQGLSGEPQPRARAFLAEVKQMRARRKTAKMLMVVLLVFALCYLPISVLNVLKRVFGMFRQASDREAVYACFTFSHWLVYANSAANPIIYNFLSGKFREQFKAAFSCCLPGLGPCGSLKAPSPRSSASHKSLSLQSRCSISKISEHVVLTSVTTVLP
Chain of human orexin-2 receptor (O43614 whole entry): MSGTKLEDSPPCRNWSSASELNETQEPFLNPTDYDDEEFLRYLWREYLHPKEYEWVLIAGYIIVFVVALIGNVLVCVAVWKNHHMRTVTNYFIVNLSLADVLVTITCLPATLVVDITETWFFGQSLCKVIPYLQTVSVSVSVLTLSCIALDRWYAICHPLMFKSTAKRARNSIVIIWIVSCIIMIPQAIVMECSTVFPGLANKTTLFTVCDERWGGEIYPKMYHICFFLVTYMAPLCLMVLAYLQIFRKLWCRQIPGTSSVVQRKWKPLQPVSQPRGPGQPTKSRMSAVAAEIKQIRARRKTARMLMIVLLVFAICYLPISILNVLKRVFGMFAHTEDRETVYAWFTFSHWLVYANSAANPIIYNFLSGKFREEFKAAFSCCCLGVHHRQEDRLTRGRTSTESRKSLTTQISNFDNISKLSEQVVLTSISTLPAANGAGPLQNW

Compound | IC50 [1, 3] | IC50 [2, 4] | IC50 [1] | IC50 [2]
Cc1ccc(-n2nccn2)c(C(=O)N2CCC[C@H]2c2noc(-c3n[nH]c4ccccc34)n2)c1 [compound 312, {(S)-2-[5-(1H-Indazol-3-yl)-[1,2,4]oxadiazol-3-yl]-pyrrolidin-1-yl}-(5-methyl-2-[1,2,3]triazol-2-yl-phenyl)-methanone] | 0.204 µM | 0.089 µM | – | –
Cc1ccc(-n2nccn2)c(C(=O)N2CCC[C@H]2c2noc(-c3cnc4sccn34)n2)c1 [compound 313, [(S)-2-(5-Imidazo[2,1-b]thiazol-5-yl-[1,2,4]oxadiazol-3-yl)-pyrrolidin-1-yl]-(5-methyl-2-[1,2,3]triazol-2-yl-phenyl)-methanone] | 0.661 µM | 0.076 µM | – | –
Cc1ccc(-n2nccn2)c(C(=O)N2CCC[C@H]2c2noc(-c3cccc(C(F)(F)F)n3)n2)c1 [compound 314, (5-Methyl-2-[1,2,3]triazol-2-yl-phenyl)-{(S)-2-[5-(6-trifluoromethyl-pyridin-2-yl)-[1,2,4]oxadiazol-3-yl]-pyrrolidin-1-yl}-methanone] | 0.249 µM | 0.314 µM | – | –
Cc1ccc(-n2nccn2)c(C(=O)N2CCC[C@H]2c2noc(-c3cc(C(F)(F)F)ccn3)n2)c1 [compound 315, (5-Methyl-2-[1,2,3]triazol-2-yl-phenyl)-{(S)-2-[5-(4-trifluoromethyl-pyridin-2-yl)-[1,2,4]oxadiazol-3-yl]-pyrrolidin-1-yl}-methanone] | 1.05 µM | 2.13 µM | – | –
COc1cc(Cl)cc(-c2nc([C@@H]3CCCN3C(=O)c3cc(C)ccc3-n3nccn3)no2)n1 [compound 316, {(S)-2-[5-(4-Chloro-6-methoxy-pyridin-2-yl)-[1,2,4]oxadiazol-3-yl]-pyrrolidin-1-yl}-(5-methyl-2-[1,2,3]triazol-2-yl-phenyl)-methanone] | 0.054 µM | 0.019 µM | – | –
CCOc1c(F)cccc1-c1nc([C@@H]2CCCN2C(=O)c2cc(C)ccc2-n2nccn2)no1 [compound 319, {(S)-2-[5-(2-Ethoxy-3-fluoro-phenyl)-[1,2,4]oxadiazol-3-yl]-pyrrolidin-1-yl}-(5-methyl-2-[1,2,3]triazol-2-yl-phenyl)-methanone] | 0.011 µM | 0.002 µM | – | –
COc1cc(C(=O)N2CCC[C@H]2c2noc(-c3cccc(Cl)c3C)n2)c(-n2nccn2)cc1C [compound 320] | 0.025 µM | 0.001 µM | – | –
Cc1cc(C(=O)N2CCC[C@H]2c2noc(-c3cccc(Cl)c3C)n2)c(-n2nccn2)cc1C [compound 321] | – | 0.001 µM | 0.007 µM | –
COc1cc(C(=O)N2CCC[C@H]2c2noc(-c3cccc(Cl)c3C)n2)c(-n2nccn2)cc1F [compound 322] | 0.158 µM | 0.006 µM | – | –
CCOc1c(F)cccc1-c1nc([C@@H]2CCCN2C(=O)c2cc(OC)c(C)cc2-n2nccn2)no1 [compound 323, {(S)-2-[5-(2-Ethoxy-3-fluoro-phenyl)-[1,2,4]oxadiazol-3-yl]-pyrrolidin-1-yl}-(5-methoxy-4-methyl-2-[1,2,3]triazol-2-yl-phenyl)-methanone] | 0.009 µM | 0.001 µM | – | –
CCOc1c(F)cccc1-c1nc([C@@H]2CCCN2C(=O)c2cc(OC)c(F)cc2-n2nccn2)no1 [compound 325, {(S)-2-[5-(2-Ethoxy-3-fluoro-phenyl)-[1,2,4]oxadiazol-3-yl]-pyrrolidin-1-yl}-(4-fluoro-5-methoxy-2-[1,2,3]triazol-2-yl-phenyl)-methanone] | 0.151 µM | 0.006 µM | – | –
CCOc1c(F)cccc1-c1nc([C@@H]2CCCN2C(=O)c2cc(OC)ccc2-n2nccn2)no1 [compound 326, {(S)-2-[5-(2-Ethoxy-3-fluoro-phenyl)-[1,2,4]oxadiazol-3-yl]-pyrrolidin-1-yl}-(5-methoxy-2-[1,2,3]triazol-2-yl-phenyl)-methanone] | 0.027 µM | 0.003 µM | – | –
CCOc1c(F)cccc1-c1nc([C@@H]2CCCN2C(=O)c2cc(Cl)ccc2-n2nccn2)no1 [compound 327] | 0.038 µM | – | – | 0.004 µM
CCOc1c(F)cccc1-c1nc([C@@H]2CCCN2C(=O)c2ccc(C)cc2-n2nccn2)no1 [compound 328, {(S)-2-[5-(2-Ethoxy-3-fluoro-phenyl)-[1,2,4]oxadiazol-3-yl]-pyrrolidin-1-yl}-(4-methyl-2-[1,2,3]triazol-2-yl-phenyl)-methanone] | 0.016 µM | 0.004 µM | – | –
CCOc1c(F)cccc1-c1nc([C@@H]2CCCN2C(=O)c2ccc(Cl)cc2-n2nccn2)no1 [compound 329] | 0.016 µM | – | – | 0.004 µM
CCOc1ncccc1-c1nc([C@@H]2CCCN2C(=O)c2cc(C)ccc2-n2nccn2)no1 [compound 330, {(S)-2-[5-(2-Ethoxy-pyridin-3-yl)-[1,2,4]oxadiazol-3-yl]-pyrrolidin-1-yl}-(5-methyl-2-[1,2,3]triazol-2-yl-phenyl)-methanone] | 0.005 µM | 0.002 µM | – | –
CCOc1ncccc1-c1nc([C@@H]2CCCN2C(=O)c2cc(C)c(C)cc2-n2nccn2)no1 [compound 331, (4,5-Dimethyl-2-[1,2,3]triazol-2-yl-phenyl)-{(S)-2-[5-(2-ethoxy-pyridin-3-yl)-[1,2,4]oxadiazol-3-yl]-pyrrolidin-1-yl}-methanone] | 0.001 µM | 0.0005 µM | – | –
CCOc1ncccc1-c1nc([C@@H]2CCCN2C(=O)c2cc(OC)c(F)cc2-n2nccn2)no1 [compound 332, {(S)-2-[5-(2-Ethoxy-pyridin-3-yl)-[1,2,4]oxadiazol-3-yl]-pyrrolidin-1-yl}-(4-fluoro-5-methoxy-2-[1,2,3]triazol-2-yl-phenyl)-methanone] | 0.099 µM | 0.004 µM | – | –

Compound | IC50 [1, 3] | IC50 [2, 4] | IC50 [1] | IC50 [2]
Cc1c(F)cccc1-c1nc([C@@H]2CCCN2C(=O)c2ccccc2-n2nccn2)no1 [compound 333, {(S)-2-[5-(3-Fluoro-2-methyl-phenyl)-[1,2,4]oxadiazol-3-yl]-pyrrolidin-1-yl}-(2-[1,2,3]triazol-2-yl-phenyl)-methanone] | 0.644 µM | 0.017 µM | – | –
COc1c(F)cccc1-c1nc([C@@H]2CCCN2C(=O)c2ccccc2-n2nccn2)no1 [compound 334, {(S)-2-[5-(3-Fluoro-2-methoxy-phenyl)-[1,2,4]oxadiazol-3-yl]-pyrrolidin-1-yl}-(2-[1,2,3]triazol-2-yl-phenyl)-methanone] | 0.32 µM | 0.012 µM | – | –
Cc1ccc(-n2nccn2)c(C(=O)N2CCC[C@H]2c2noc(-c3cccc(F)c3C)n2)c1 [compound 335, {(S)-2-[5-(3-Fluoro-2-methyl-phenyl)-[1,2,4]oxadiazol-3-yl]-pyrrolidin-1-yl}-(5-methyl-2-[1,2,3]triazol-2-yl-phenyl)-methanone] | 0.065 µM | 0.004 µM | – | –
COc1c(F)cccc1-c1nc([C@@H]2CCCN2C(=O)c2cc(C)ccc2-n2nccn2)no1 [compound 336, {(S)-2-[5-(3-Fluoro-2-methoxy-phenyl)-[1,2,4]oxadiazol-3-yl]-pyrrolidin-1-yl}-(5-methyl-2-[1,2,3]triazol-2-yl-phenyl)-methanone] | 0.045 µM | 0.003 µM | – | –
Cc1ccc(C(=O)N2CCC[C@H]2c2noc(-c3cccc(F)c3C)n2)c(-n2nccn2)c1 [compound 337, {(S)-2-[5-(3-Fluoro-2-methyl-phenyl)-[1,2,4]oxadiazol-3-yl]-pyrrolidin-1-yl}-(4-methyl-2-[1,2,3]triazol-2-yl-phenyl)-methanone] | 0.112 µM | 0.014 µM | – | –
COc1c(F)cccc1-c1nc([C@@H]2CCCN2C(=O)c2ccc(C)cc2-n2nccn2)no1 [compound 338, {(S)-2-[5-(3-Fluoro-2-methoxy-phenyl)-[1,2,4]oxadiazol-3-yl]-pyrrolidin-1-yl}-(4-methyl-2-[1,2,3]triazol-2-yl-phenyl)-methanone] | 0.027 µM | 0.004 µM | – | –
Cc1cc(C(=O)N2CCC[C@H]2c2noc(-c3cccc(F)c3C)n2)c(-n2nccn2)cc1C [compound 339, (4,5-Dimethyl-2-[1,2,3]triazol-2-yl-phenyl)-{(S)-2-[5-(3-fluoro-2-methyl-phenyl)-[1,2,4]oxadiazol-3-yl]-pyrrolidin-1-yl}-methanone] | 0.015 µM | 0.002 µM | – | –
COc1cc(C(=O)N2CCC[C@H]2c2noc(-c3cccc(F)c3OC)n2)c(-n2nccn2)cc1C [compound 341, {(S)-2-[5-(3-Fluoro-2-methoxy-phenyl)-[1,2,4]oxadiazol-3-yl]-pyrrolidin-1-yl}-(5-methoxy-4-methyl-2-[1,2,3]triazol-2-yl-phenyl)-methanone] | 0.013 µM | 0.001 µM | – | –
Cc1c(F)cccc1-c1nc([C@@H]2CCCN2C(=O)c2cc(Cl)ccc2-n2nccn2)no1 [compound 342] | 0.152 µM | – | – | 0.013 µM
COc1c(F)cccc1-c1nc([C@@H]2CCCN2C(=O)c2cc(Cl)ccc2-n2nccn2)no1 [compound 343] | 0.046 µM | 0.003 µM | – | –
CCOc1ncccc1-c1nc([C@@H]2CCCN2C(=O)c2ccc(C)cc2-n2nccn2)no1 [compound 345] | 0.033 µM | 0.011 µM | – | –
CCOc1ncccc1-c1nc([C@@H]2CCCN2C(=O)c2cc(Cl)ccc2-n2nccn2)no1 [compound 346] | 0.023 µM | 0.002 µM | – | –
COc1cc(C(=O)N2CCC[C@H]2c2noc(-c3cccc(Cl)c3OC)n2)c(-n2nccn2)cc1Cl [compound 347] | 0.015 µM | 0.001 µM | – | –
COc1cc(C(=O)N2CCC[C@H]2c2noc(-c3cccc(Cl)c3OC)n2)c(-n2nccn2)cc1C [compound 348] | 0.01 µM | 0.001 µM | – | –
COc1c(Cl)cccc1-c1nc([C@@H]2CCCN2C(=O)c2ccc(Cl)cc2-n2nccn2)no1 [compound 349] | 0.027 µM | 0.003 µM | – | –
COc1cc(C(=O)N2CCC[C@H]2c2noc(-c3cc(C)ccc3OC)n2)c(-n2nccn2)cc1Cl [compound 350] | 0.036 µM | 0.002 µM | – | –
COc1c(Cl)cccc1-c1nc([C@@H]2CCCN2C(=O)c2cc(C)ccc2-n2nccn2)no1 [compound 351] | – | 0.004 µM | 0.022 µM | –

Source: patent US9493446B2, “Orexin receptor antagonists which are [ortho bi-(hetero-)aryl]-[2-(meta bi-(hetero-)aryl)-pyrrolidin-1-yl]-methanone derivatives” (Actelion Pharmaceuticals Ltd, priority 2012, dated 2016)
